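Assay format: 96-well plates, 48-hour exposure. Abbreviation: GI50, concentration required for 50% inhibition of growth.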 Calls of active or inactive are those of the source. No stated cut-off is given here; in the data, active = GI50 up to about 1.1 µM and inactive = higher.
Experiments:
Assay in all cases: inhibition of tumour cell growth, NCI panel, 48 h
[1] = system: TK-10
[2] = system: RPMI-8226
[3] = system: OVCAR-5
[4] = system: NCI-H522
[5] = system: SR
[6] = system: UO-31
[7] = system: A498
[8] = system: K562
[9] = system: SNB-75
[10] = system: UACC-62
[11] = system: SNB-78
[12] = system: SK-MEL-2
[13] = system: SF-539
[14] = system: HCT-116
[15] = system: SNB-19
[16] = system: RXF 393
[17] = system: LOX IMVI
[18] = system: HOP-62
[19] = system: IGROV-1
[20] = system: SK-MEL-28
[21] = system: HCT-15
[22] = system: U-251
[23] = system: CCRF-CEM
[24] = system: RXF 631
[25] = system: EKVX
[26] = system: UACC-257
[27] = system: XF498
[28] = system: M19-MEL
[29] = system: SF-268
[30] = system: 786-0
[31] = system: HOP-92
[32] = system: OVCAR-3
[33] = system: CAKI-1
[34] = system: NCI-H23
[35] = system: SF-295
[36] = system: NCI-H460
[37] = system: HT-29
[38] = system: DMS-114
[39] = system: DMS-273
[40] = system: HCC 2998
[41] = system: OVCAR-8
[42] = system: KM-20L2
[43] = system: Malme-3M
[44] = system: HOP-18
[45] = system: SK-MEL-5
[46] = system: LXFL 529
[47] = system: OVCAR-4
[48] = system: ACHN
[49] = system: NCI-H226
[50] = system: KM12
[51] = system: M14
[52] = system: SW-620
[53] = system: DLD-1
[54] = system: MOLT-4
[55] = system: A549
[56] = system: SK-OV-3
[57] = system: COLO 205
[58] = system: SN12C
[59] = system: HL-60

O=C1C2C3C=CC(C2C(=O)N1CO)C1C2C(=O)N(CO)C(=O)C2C31 (stereo not given)
GI50 [1]: > 100 µM (inactive) | GI50 [2]: 21.8 µM (inactive) | GI50 [3]: > 100 µM (inactive) | GI50 [4]: > 100 µM (inactive) | GI50 [5]: 22.5 µM (inactive) | GI50 [6]: > 100 µM (inactive) | GI50 [7]: > 100 µM (inactive) | GI50 [8]: > 48.6 µM (inactive) | GI50 [9]: 70.8 µM (inactive) | GI50 [10]: > 100 µM (inactive) | GI50 [11]: > 100 µM (inactive) | GI50 [12]: > 100 µM (inactive) | GI50 [13]: > 61 µM (inactive) | GI50 [14]: > 44.5 µM (inactive) | GI50 [15]: > 100 µM (inactive) | GI50 [16]: > 81.7 µM (inactive) | GI50 [17]: > 45 µM (inactive) | GI50 [18]: > 100 µM (inactive) | GI50 [19]: > 100 µM (inactive) | GI50 [20]: > 84.1 µM (inactive) | GI50 [21]: 37 µM | GI50 [22]: > 67.1 µM (inactive) | GI50 [23]: 23.6 µM (inactive) | GI50 [24]: > 54.6 µM (inactive) | GI50 [25]: > 100 µM (inactive) | GI50 [26]: > 100 µM (inactive) | GI50 [27]: > 100 µM (inactive) | GI50 [28]: > 68.5 µM (inactive) | GI50 [29]: > 50.4 µM (inactive) | GI50 [30]: > 44 µM (inactive) | GI50 [31]: > 100 µM (inactive) | GI50 [32]: > 92.9 µM (inactive) | GI50 [33]: > 100 µM (inactive) | GI50 [34]: > 100 µM (inactive) | GI50 [35]: > 100 µM (inactive) | GI50 [36]: 27.9 µM (inactive) | GI50 [37]: 92.5 µM (inactive) | GI50 [38]: 42 µM (inactive) | GI50 [39]: > 44.5 µM (inactive) | GI50 [40]: > 100 µM (inactive) | GI50 [41]: 36.4 µM (inactive) | GI50 [42]: > 31.6 µM (inactive) | GI50 [43]: > 100 µM (inactive) | GI50 [44]: 43.4 µM (inactive) | GI50 [45]: > 83 µM (inactive) | GI50 [46]: > 81.1 µM (inactive) | GI50 [47]: > 45.8 µM (inactive) | GI50 [48]: > 44.9 µM (inactive) | GI50 [49]: > 100 µM (inactive) | GI50 [50]: > 74.3 µM (inactive) | GI50 [51]: > 100 µM (inactive) | GI50 [52]: 33.5 µM (inactive) | GI50 [53]: > 46.9 µM (inactive) | GI50 [54]: 74.1 µM (inactive) | GI50 [55]: > 54.2 µM (inactive) | GI50 [56]: > 100 µM (inactive) | GI50 [57]: > 48.2 µM (inactive) | GI50 [58]: > 69.8 µM (inactive)

FC(F)(F)C1(Br)C(c2ccccc2)=C1c1ccccc1
GI50 [1]: 22.9 µM (inactive) | GI50 [2]: 19.3 µM (inactive) | GI50 [3]: 20.9 µM (inactive) | GI50 [5]: 5.11 µM (inactive) | GI50 [6]: 18 µM (inactive) | GI50 [59]: 7.28 µM (inactive) | GI50 [8]: 7.14 µM (inactive) | GI50 [9]: 29.1 µM (inactive) | GI50 [10]: 15.8 µM (inactive) | GI50 [11]: 25.8 µM (inactive) | GI50 [12]: 15.9 µM (inactive) | GI50 [13]: 17.9 µM (inactive) | GI50 [14]: 6.7 µM (inactive) | GI50 [15]: 22.3 µM (inactive) | GI50 [16]: 15.5 µM (inactive) | GI50 [17]: 12.9 µM (inactive) | GI50 [18]: 18.5 µM (inactive) | GI50 [19]: 24.7 µM (inactive) | GI50 [20]: 18.9 µM (inactive) | GI50 [21]: 12.3 µM | GI50 [22]: 15.6 µM (inactive) | GI50 [23]: 4.43 µM (inactive) | GI50 [24]: 22.6 µM (inactive) | GI50 [25]: 32.2 µM (inactive) | GI50 [26]: 18.5 µM (inactive) | GI50 [27]: 15.2 µM (inactive) | GI50 [28]: 15.6 µM (inactive) | GI50 [29]: 19.3 µM (inactive) | GI50 [30]: 15.9 µM (inactive) | GI50 [31]: 16.7 µM (inactive) | GI50 [32]: 15.7 µM (inactive) | GI50 [33]: 23.8 µM (inactive) | GI50 [34]: 16.6 µM (inactive) | GI50 [35]: 13 µM (inactive) | GI50 [36]: 24.7 µM (inactive) | GI50 [37]: 17.9 µM (inactive) | GI50 [38]: 15.2 µM (inactive) | GI50 [39]: 17.9 µM (inactive) | GI50 [40]: 16.9 µM (inactive) | GI50 [41]: 15 µM (inactive) | GI50 [42]: 16.1 µM (inactive) | GI50 [43]: 15.8 µM (inactive) | GI50 [44]: 16.5 µM (inactive) | GI50 [45]: 15.4 µM (inactive) | GI50 [46]: 14.3 µM (inactive) | GI50 [47]: 18.8 µM (inactive) | GI50 [48]: 16.8 µM (inactive) | GI50 [49]: 17.7 µM (inactive) | GI50 [50]: 15.8 µM (inactive) | GI50 [51]: 17.1 µM (inactive) | GI50 [52]: 16.5 µM (inactive) | GI50 [53]: 14.7 µM (inactive) | GI50 [54]: 2.7 µM (inactive) | GI50 [55]: 17.7 µM (inactive) | GI50 [56]: 45.2 µM (inactive) | GI50 [57]: 18.8 µM (inactive) | GI50 [58]: 14 µM (inactive)

From ChEMBL document CHEMBL1201862, “PubChem BioAssay data set” (2004)
